Measurements reported in PubChem BioAssay (NCI).
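Values below derive from 48-hour exposures of cells grown in 96-well plates, with endpoints linearly interpolated between the two concentrations bracketing the appropriate inhibition level. GI50 is the concentration that inhibits growth by half. The concentration for full growth arrest is given as TGI.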

Tests used:
Assay in all cases: NCI-60 cell line screen, 48 h; in the data active = GI50 below about 0.43 µM; inactive = the rest
OVCAR-5 ovarian = tested on: OVCAR-5 ovarian
HCT-116 colon = tested on: HCT-116 colon
IGROV1 ovarian = tested on: IGROV1 ovarian
SK-MEL-5 melanoma = tested on: SK-MEL-5 melanoma
OVCAR-8 ovarian = tested on: OVCAR-8 ovarian
UACC-62 melanoma = tested on: UACC-62 melanoma
A549 NSCLC = tested on: A549 NSCLC
RXF 393 renal = tested on: RXF 393 renal
MOLT-4 leukemia = tested on: MOLT-4 leukemia
CCRF-CEM leukemia = tested on: CCRF-CEM leukemia
786-0 renal = tested on: 786-0 renal
RPMI-8226 leukemia = tested on: RPMI-8226 leukemia
HOP-62 NSCLC = tested on: HOP-62 NSCLC
SK-MEL-28 melanoma = tested on: SK-MEL-28 melanoma
HT29 colon = tested on: HT29 colon
MCF7 breast = tested on: MCF7 breast
SK-OV-3 ovarian = tested on: SK-OV-3 ovarian
NCI/ADR-RES ovarian = tested on: NCI/ADR-RES ovarian
SK-MEL-2 melanoma = tested on: SK-MEL-2 melanoma
EKVX NSCLC = tested on: EKVX NSCLC
MDA-N = tested on: MDA-N
MDA-MB-231 breast = tested on: MDA-MB-231 breast
MALME-3M melanoma = tested on: MALME-3M melanoma
MDA-MB-435 = tested on: MDA-MB-435
NCI-H23 lung = tested on: NCI-H23 lung
HL-60(TB) leukemia = tested on: HL-60(TB) leukemia
NCI-H460 lung = tested on: NCI-H460 lung
OVCAR-4 ovarian = tested on: OVCAR-4 ovarian
HCC-2998 colon = tested on: HCC-2998 colon
M14 melanoma = tested on: M14 melanoma
BT-549 breast = tested on: BT-549 breast
T-47D breast = tested on: T-47D breast
ACHN renal = tested on: ACHN renal
HCT-15 colon = tested on: HCT-15 colon
UACC-257 melanoma = tested on: UACC-257 melanoma
SF-539 CNS = tested on: SF-539 CNS
NCI-H522 lung = tested on: NCI-H522 lung
SNB-75 CNS = tested on: SNB-75 CNS
SR leukemia = tested on: SR leukemia
HS 578T breast = tested on: HS 578T breast
UO-31 renal = tested on: UO-31 renal
COLO 205 colon = tested on: COLO 205 colon
SN12C renal = tested on: SN12C renal
SNB-19 CNS = tested on: SNB-19 CNS
LOX IMVI melanoma = tested on: LOX IMVI melanoma
KM12 colon = tested on: KM12 colon
U251 CNS = tested on: U251 CNS
OVCAR-3 ovarian = tested on: OVCAR-3 ovarian
K-562 leukemia = tested on: K-562 leukemia
DU-145 prostate = tested on: DU-145 prostate
CAKI-1 renal = tested on: CAKI-1 renal
NCI-H226 lung = tested on: NCI-H226 lung
SF-268 CNS = tested on: SF-268 CNS
A498 renal = tested on: A498 renal
TK-10 renal = tested on: TK-10 renal
PC-3 prostate = tested on: PC-3 prostate
SF-295 CNS = tested on: SF-295 CNS
HOP-92 NSCLC = tested on: HOP-92 NSCLC
SW-620 colon = tested on: SW-620 colon

O=C(O)c1cc(Sc2ccc([N+](=O)[O-])c(C(=O)O)c2)ccc1[N+](=O)[O-]
> 78.9 µM: TGI (MALME-3M melanoma)
inactive: GI50 (NCI-H23 lung) > 100 µM | GI50 (HCC-2998 colon) > 100 µM | GI50 (NCI-H522 lung) > 100 µM | GI50 (SNB-75 CNS) > 100 µM | GI50 (SR leukemia) > 100 µM | GI50 (CAKI-1 renal) > 100 µM
> 100 µM: TGI (OVCAR-5 ovarian) | TGI (HCT-116 colon) | TGI (IGROV1 ovarian) | TGI (SK-MEL-5 melanoma) | TGI (OVCAR-8 ovarian) | TGI (UACC-62 melanoma) | TGI (A549 NSCLC) | TGI (RXF 393 renal) | TGI (MOLT-4 leukemia) | TGI (CCRF-CEM leukemia) | TGI (786-0 renal) | TGI (RPMI-8226 leukemia) | TGI (HOP-62 NSCLC) | TGI (SK-MEL-28 melanoma) | TGI (HT29 colon) | TGI (MCF7 breast) | TGI (SK-OV-3 ovarian) | TGI (NCI/ADR-RES ovarian) | TGI (SK-MEL-2 melanoma) | TGI (EKVX NSCLC) | TGI (MDA-N) | TGI (MDA-MB-231 breast) | TGI (MDA-MB-435) | TGI (NCI-H23 lung) | TGI (HL-60(TB) leukemia) | TGI (NCI-H460 lung) | TGI (OVCAR-4 ovarian) | TGI (HCC-2998 colon) | TGI (M14 melanoma) | TGI (BT-549 breast) | TGI (T-47D breast) | TGI (ACHN renal) | TGI (HCT-15 colon) | TGI (UACC-257 melanoma) | TGI (SF-539 CNS) | TGI (NCI-H522 lung) | TGI (SNB-75 CNS) | TGI (SR leukemia) | TGI (HS 578T breast) | TGI (UO-31 renal) | TGI (COLO 205 colon) | TGI (SN12C renal) | TGI (SNB-19 CNS) | TGI (LOX IMVI melanoma) | TGI (KM12 colon) | TGI (U251 CNS) | TGI (OVCAR-3 ovarian) | TGI (K-562 leukemia) | TGI (DU-145 prostate) | TGI (CAKI-1 renal) | TGI (NCI-H226 lung) | TGI (SF-268 CNS) | TGI (A498 renal) | TGI (TK-10 renal) | TGI (PC-3 prostate) | TGI (SF-295 CNS) | TGI (HOP-92 NSCLC) | TGI (SW-620 colon)

O=C(O)C(F)(OC(F)(F)C(F)(OC(F)(F)C(F)(F)C(F)(F)F)C(F)(F)F)C(F)(F)F (centres undefined)
> 100 µM: TGI (OVCAR-5 ovarian) | TGI (HCT-116 colon) | TGI (IGROV1 ovarian) | TGI (SK-MEL-5 melanoma) | TGI (OVCAR-8 ovarian) | TGI (UACC-62 melanoma) | TGI (A549 NSCLC) | TGI (RXF 393 renal) | TGI (MOLT-4 leukemia) | TGI (CCRF-CEM leukemia) | TGI (786-0 renal) | TGI (RPMI-8226 leukemia) | TGI (HOP-62 NSCLC) | TGI (SK-MEL-28 melanoma) | TGI (HT29 colon) | TGI (MCF7 breast) | TGI (SK-OV-3 ovarian) | TGI (NCI/ADR-RES ovarian) | TGI (SK-MEL-2 melanoma) | TGI (EKVX NSCLC) | TGI (MDA-N) | TGI (MDA-MB-231 breast) | TGI (MALME-3M melanoma) | TGI (MDA-MB-435) | TGI (NCI-H23 lung) | TGI (HL-60(TB) leukemia) | TGI (NCI-H460 lung) | TGI (OVCAR-4 ovarian) | TGI (HCC-2998 colon) | TGI (M14 melanoma) | TGI (BT-549 breast) | TGI (T-47D breast) | TGI (ACHN renal) | TGI (HCT-15 colon) | TGI (UACC-257 melanoma) | TGI (SF-539 CNS) | TGI (NCI-H522 lung) | TGI (SNB-75 CNS) | TGI (SR leukemia) | TGI (HS 578T breast) | TGI (UO-31 renal) | TGI (COLO 205 colon) | TGI (SN12C renal) | TGI (SNB-19 CNS) | TGI (LOX IMVI melanoma) | TGI (KM12 colon) | TGI (U251 CNS) | TGI (OVCAR-3 ovarian) | TGI (K-562 leukemia) | TGI (DU-145 prostate) | TGI (CAKI-1 renal) | TGI (NCI-H226 lung) | TGI (SF-268 CNS) | TGI (A498 renal) | TGI (TK-10 renal) | TGI (PC-3 prostate) | TGI (SF-295 CNS) | TGI (HOP-92 NSCLC) | TGI (SW-620 colon)
